Assay results as given in patent publication US8993593B2, “N-(4-(6-fluoro-3,4-dihydroisoquinolin-2(1H)-yl)-2,6-dimethylphenyl)-3,3-dimethylbutanamide as potassium channel modulators” (Valeant Pharmaceuticals International, priority 2006, dated 2015).

Experiment: Open field test (acute toxicity)
Details: Sprague-Dawley, in vivo, oral, rat, read-out: TD50, motor impairment
Description: Before MES test, compound treated rats are visually observed for acute toxicity signs for approximately one minute in the open field test. Here, rats are gently placed into a plexiglass enclosure and are monitored for behavior consistent with toxicity including ataxia, trembling, hypoactivity (including failure to seek the walls), hypersensitivity, lack of exploratory behavior and lack of avoidance of the open area. […] Motor impairment, as judged by this test was not observed in the rat model and generated a TD50 value of greater than 5 mg/kg.

Cc1cc(N2CCc3cc(F)ccc3C2)cc(C)c1NC(=O)CC(C)(C)C [compound A, N-[4-(6-fluoro-3,4-dihydro-1H-isoquinolin-2-yl)-2,6-dimethylphenyl]-3,3-dimethyl butanamide]
TD50 at 1 min: > 5 mg/kg
